Reference: US11104965B2, “Methods for the diagnosis and treatment of inflammatory bowel disease” (priority 2013, dated 2021)

What was measured:
[1] = system: A. parvulum; assay: A. parvulum colonization level in stool of mono-associated II10-/- mice by real-time qPCR; assay type: in vivo, Atopobium parvulum; settings: 6 weeks, P=0.0001, FIG. 12B
Description: Statistical significance was assessed using a Mann-Whitney U-test.
(§1) To test the causative role of H2S-producing microbes in colitis, we assessed whether an H2S scavenger (bismuth) could alleviate Atopobium-induced colitis in II10^−/− mice. […] It should be noted that the intestines of IBD patients also display a similar increased number of lymphoid follicles^15. […] Increased GALT foci in Atopobium-associated mice could lead to an aberrant expression of lymphoid adhesion molecules and unwanted T cell activation towards commensal microbes. To assess the role of these commensal microbes in colitis development, germ-free mice were mono-associated with A. parvulum and kept under gnotobiotic conditions.
To investigate involvement of complex biota and H2S in the development of colitis, we performed two subsequent experiments using 129/SvEv II-10^−/− mice. […] Mice were euthanized after 6 weeks of mono-association. […] Mice were fed with this diet starting 1 week before the colonization with A. parvulum. […] Mice were euthanized after 6 weeks of weekly infection with A. parvulum. […] Mice were fed with this diet starting 1 week before the colonization with A. parvulum.

[2] = system: gut microbiota of II10−/− mice; assay: Gut microbiota composition of SPF and Atopobium-associated II10-/- mice, treated or not with bismuth (PCA, Table 6); assay type: in vivo, mouse
From the text: To assess the role of these commensal microbes in colitis development, germ-free mice were mono-associated with A. parvulum and kept under gnotobiotic conditions. […] FIG. 12B). […] GF+bismuth (III) subsalicylate (n=10); 3: […] A. parvulum+bismuth (III) subsalicylate (n=11). Mice were euthanized after 6 weeks of mono-association. […] Mice were fed with this diet starting 1 week before the colonization with A. parvulum. […] SPF+bismuth (III) subsalicylate (n=8); 3: […] A. parvulum+bismuth (III) subsalicylate (n=8). Mice were euthanized after 6 weeks of weekly infection with A. parvulum. […] Mice were fed with this diet starting 1 week before the colonization with A. parvulum.

[3] = system: Atopobium-induced colitis in II10−/− mice; assay: Atopobium-induced colitis in II10-/- mice under SPF conditions, treated or not with bismuth (colonoscopy, blinded histological inflammation score); assay type: in vivo, mouse; settings: A. parvulum-associated II10-/- mice, 6 weeks
From the text: as §1
Colonic mucosal lavages and/or mucosal biopsies were collected from 157 pediatric subjects (84 Crohn's Disease, 20 Ulcerative Colitis, and 53 controls). […] Reads were quality filtered and QIIME ^23 was used to assign reads into operational taxonomic units (OTUs) against the Greengenes reference set. […] The generated raw data was processed and analyzed by MaxQuant against the decoy Uniport-human database with the protein-group file imported into Persus for statistical analysis. […] The transcript levels of TST, SQRDL and COX4-1 were quantified by RT-qPCR. […] Mouse colonoscopies were performed and histological inflammation was blindly scored as previously described ^25. Mice mucosal cytokines (Cxcl1, II12p40, II1β and II17a) were quantified by RT-qPCR. […]

[4] = system: GALT foci of II10−/− mice; assay: Number of GALT foci in II10-/- mice mono-associated with A. parvulum, gnotobiotic conditions; assay type: in vivo, mouse; settings: germ-free II10-/- mice mono-associated with A. parvulum, FIG. 4C
Description: (§2) Statistical significance was assessed using a Kruskal-Wallis test with a Dunn's post hoc test.
as §1
(§3) To investigate involvement of complex biota and H2S in the development of colitis, we performed two subsequent experiments using 129/SvEv II-10^−/− mice. […] Mice were euthanized after 6 weeks of mono-association. […] Mice were fed with this diet starting 1 week before the colonization with A. parvulum. […] Mice were euthanized after 6 weeks of weekly infection with A. parvulum. […]
(§4) All animal protocols were approved by the Institutional Animal Care and Use Committee of the University of North Carolina at Chapel Hill. […] Histological images were acquired using a DP71 camera and DP Controller 3.1.1.276 (Olympus), and intestinal inflammation was scored as previously described^12. […]

[5] = system: GALT foci of II10−/− mice; assay: Number of GALT foci in II10-/- mice associated with A. parvulum, SPF conditions; assay type: in vivo, mouse; settings: Atopobium-associated II10-/- mice under SPF conditions; FIG. 4C
Description: as §2, §1, §3, §4

O=C([O-])c1ccccc1[O-].[Bi+3].[OH-] [bismuth, Bismuth (III) subsalicylate]
A. parvulum colonization level (16S rDNA gene copies per mg of stool) [1]: reduced colonization level
microbiota of Atopobium-associated mice, abundance of butyrate-producers ([2]; Atopobium-associated II10-/- mice, SPF): restores the microbiota of these mice toward a healthier community
microbiota composition ([2]; SPF and Atopobium-associated II10-/- mice, Table 6): altered the microbiota composition
inflammatory score ([3]; bismuth 7 g/kg in chow, P=0.007, FIG. 4B): decrease inflammatory score
colitis as evidenced by colonoscopy visualization ([3]; bismuth (III) subsalicylate 7 g/kg in chow, FIG. 4A): prevented colitis
GALT neogenesis [4]: prevented GALT neogenesis
GALT formation (number of GALT foci) [5]: did not prevent GALT formation
